Experimental data: patent US9006228B2 (Merck Sharp & Dohme Corp., priority 2011, dated 2015)

Molecular target: T1, human GPR119 (Homo sapiens, UniProt Q8TDV5)
T1 sequence (Q8TDV5 1-308 limits assumed): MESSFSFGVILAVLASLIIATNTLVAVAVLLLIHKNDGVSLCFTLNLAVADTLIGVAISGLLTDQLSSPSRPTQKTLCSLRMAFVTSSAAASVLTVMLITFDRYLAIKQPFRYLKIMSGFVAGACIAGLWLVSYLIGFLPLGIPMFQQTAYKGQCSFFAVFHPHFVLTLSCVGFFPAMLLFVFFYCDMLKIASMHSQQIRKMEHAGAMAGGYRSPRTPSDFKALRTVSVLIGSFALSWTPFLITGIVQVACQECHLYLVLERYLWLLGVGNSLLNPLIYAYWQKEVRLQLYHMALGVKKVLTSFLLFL
Experiment: Measurement of GPR119 signaling (cAMP assay; LANCE kit or HTRF) in HEK293 cells stably transfected with human GPR119
Format: cell-based
Details: agonist-stimulated cAMP in HEK293 cells expressing human GPR119
Description: Measurement of GPR119 Signaling Using LANCE 384-Well cAMP Kit
The adenylate cyclase assay was constructed following the LANCE™ cAMP Kit (Perkin Elmer, AD0264) instructions. […] The reaction was stopped by incubating with the supplied detection buffer containing the europium chelate of the Eu-SA/Biotin-cAMP tracer for 3 hours. The assay was performed in duplicate in a 384 well plate for duplicate plates. Fluorescence at 665 nm was measured using a PHERAstar instrument. Basal activity was determined using a DMSO control and maximum response was defined as cAMP stimulation produced by an internal agonist control. Standard cAMP concentrations were assayed concurrently for conversion of fluorescence signal to cAMP level. The data was analyzed using 4-parameter curve fit in Microsoft Excel.
Measurement of GPR119 Signaling Using a Cyclic AMP (cAMP) Homogenous Time Resolved Fluorescence (HTRF) Assay
Chinese hamster ovary (CHO) cell lines stably transfected with the permissive guanine nucleotide binding protein alpha 15 (Gα15) and murine GPR119 were maintained in DMEM media containing FBS, penicillin-streptomycin, puromycin, and G418 (geneticin). […] Agonist activation of the GPR119 receptor was measured in receptor transfected cells described above, treated with compounds of this invention, using a commercial homogenous time resolved fluorescence (HTRF) kit for measurement of cAMP (CisBio, Bedford, Mass.). The assay was performed in 96-well half-volume plates (murine) or 384-well plates (human) following the manufacturers instructions. Briefly, suspended cells were incubated with a dose titration of test compound at RT for 60 min, lysed, and incubated with HTRF reagents for an additional 60 min. The plate was read using an Envision multilabel reader (Perkin Elmer) adjusted to read time resolved fluorescence and the cAMP concentrations were extrapolated from a cAMP calibration curve. […] The concentration of test compound required to stimulate a half-maximal response (EC50), and efficacy as compared to an internal agonist control, was determined from a sigmoidal 4-parameter curve fit of the resulting plot of normalized activity versus compound concentration.

EC50 [nM] | Compound
0.3 | CCc1cnc(N2CCC([C@H]3C[C@H]3COCc3ccc(-n4ccnn4)cc3)CC2)nc1 [Example 62, 5-ethyl-2-{4-[(1R,2R)-2-({[4-(1H-1,2,3-triazol-1-yl)benzyl]oxy}methyl)cyclopropyl]piperidin-1-yl}pyrimidine]
20.5 | CC(C)OC(=O)N1CCC([C@H]2C[C@H]2COCc2cc(F)c(S(C)(=O)=O)c(F)c2)CC1 [Example 50, isopropyl 4-[(1R,2R)-2-({[3,5-difluoro-4-(methylsulfonyl)benzyl]oxy}methyl)cyclopropyl] piperidine-1-carboxylate]
1.6 | CCc1cnc(N2CCC([C@H]3C[C@H]3COCc3ccc(C[C@H](C)O)cc3)CC2)nc1 [Example 59, (2S)-1-{4-[({(1R,2R)-2-[1-(5-ethylpyrimidin-2-yl)piperidin-4-yl]cyclopropyl}methoxy)methyl]phenyl}propan-2-ol]
1 | CS(=O)(=O)c1ccc(COC[C@@H]2C[C@@H]2C2CCN(c3ncc(C4CC4)cn3)CC2)cc1 [Example 18, 5-cyclopropyl-2-{4-[(1R,2R)-2-({[4-(methylsulfonyl)benzyl]oxy}methyl)cyclopropyl]piperidin-1-yl}pyrimidine]
0.18 | CS(=O)(=O)c1ccc(COC[C@@H]2C[C@@H]2C2CCN(c3ncc(Cl)cn3)CC2)c(F)c1 [Example 68]
5.5 | CCc1cnc(N2CCC([C@H]3C[C@H]3COCc3ccc(-c4ncno4)cc3)CC2)nc1 [Example 63, 5-ethyl-2-{4-[(1R,2R)-2-({[4-(1,2,4-oxadiazol-5-yl)benzyl]oxy}methyl)cyclopropyl]piperidin-1-yl}pyrimidine]
0.66 | CC(C)c1noc(N2CCC([C@H]3C[C@H]3COCc3ccc(CC(=O)N(C)C)c(F)c3)CC2)n1 [Example 140, 2-(2-fluoro-4-((((1R,2R)-2-(1-(3-isopropyl-1,2,4-oxadiazol-5-yl)piperidin-4-yl)cyclopropyl)methoxy)methyl)phenyl)-N,N-dimethylacetamide]
1 | O=C(c1c(F)cc(COC[C@@H]2C[C@@H]2C2CCN(c3ncc(Cl)cn3)CC2)cc1F)C1CC1 [Example 53]
0.7 | CS(=O)(=O)c1ccc(COC[C@@H]2C[C@@H]2C2CCN(c3ncc(Cl)cn3)CC2)cc1 [Example 14, 5-chloro-2-{4-[(1R,2R)-2-({[4-(methylsulfonyl)benzyl]oxy}methyl)cyclopropyl]piperidin-1-yl}pyrimidine]
10.7 | O=S(=O)(CCO)c1ccc(COC[C@@H]2C[C@@H]2C2CCN(c3ncc(Br)cn3)CC2)nc1 [Example 87, 2-({6-[({(1R,2R)-2-[1-(5-bromopyrimidin-2-yl)piperidin-4-yl]cyclopropyl}methoxy)methyl]pyridin-3-yl}sulfonyl)ethanol]
1.5 | COC(C)c1cnc(N2CCC([C@H]3C[C@H]3COCc3ccc(S(C)(=O)=O)cc3F)CC2)nc1 (single isomer, unassigned) [Example 126]
16 | CCCOC(=O)N1CCC([C@H]2C[C@H]2COCc2ccc(S(C)(=O)=O)cc2)CC1 [Example 8, propyl 4-[(1R,2R)-2-({[4-(methylsulfonyl)benzyl]oxy}methyl)cyclopropyl]piperidine-1-carboxylate]

The next lines start with the compound.

Compound | EC50 [nM]
COCc1cnc(N2CCC([C@H]3C[C@H]3COCc3ccc(-n4cnnn4)c(F)c3)CC2)nc1 [Example 132, 2-(4-((1R,2R)-2-((3-fluoro-4-(1H-tetrazol-1-yl)benzyloxy)methyl)cyclopropyl)piperidin-1-yl)-5-(methoxymethyl)pyrimidine] | 1.1
CCOc1cnc(N2CCC([C@H]3C[C@H]3COCc3ccc(S(C)(=O)=O)c(F)c3)CC2)nc1 [Example 129, 5-ethoxy-2-(4-((1R,2R)-2-(((3-fluoro-4-(methylsulfonyl)benzyl)oxy)methyl)cyclopropyl)piperidin-1-yl)pyrimidine] | 1.65
CCS(=O)(=O)c1ccc(COC[C@@H]2C[C@@H]2C2CCN(c3ncc(COC)cn3)CC2)c(F)c1 [Example 127, 2-(4-((1R,2R)-2-(((4-(ethylsulfonyl)-2-fluorobenzyl)oxy)methyl)cyclopropyl)piperidin-1-yl)-5-(methoxymethyl)pyrimidine] | 2.8
CC(C)(O)CSc1ccc(COC[C@@H]2C[C@@H]2C2CCN(C(=O)OC(C)(C)C)CC2)cc1 [Example 92] | 20.3
CCc1cnc(N2CCC([C@H]3C[C@H]3COCc3ccc(-c4cccnn4)c(F)c3)CC2)nc1 [Example 114, 3-{4-[({(1R,2R)-2-[1-(5-ethylpyrimidin-2-yl)piperidin-4-yl]cyclopropyl}methoxy)methyl]-2-fluorophenyl}pyridazine] | 3
O=S(=O)(CCO)c1ccc(COC[C@@H]2C[C@@H]2C2CCN(c3ncc(Cl)cn3)CC2)nc1 [Example 86, 2-({6-[({(1R,2R)-2-[1-(5-chloropyrimidin-2-yl)piperidin-4-yl]cyclopropyl}methoxy)methyl]pyridin-3-yl}sulfonyl)ethanol] | 22
CS(=O)(=O)c1ccc(COC[C@@H]2C[C@@H]2C2CCN(c3ncc(Br)cn3)CC2)c(F)c1 [Example 70] | 0.19
CCc1cnc(N2CCC([C@H]3C[C@H]3COCc3ccc(-c4nccnc4N)cc3F)CC2)nc1 [Example 107, 2-{4-[({(1R,2R)-2-[1-(5-ethylpyrimidin-2-yl)piperidin-4-yl]cyclopropyl}methoxy)methyl]-3-fluorophenyl}pyrazin-2-amine] | 2
CC(C)c1noc(N2CCC([C@H]3C[C@H]3COCc3ccc(S(C)(=O)=O)cc3)CC2)n1 [Example 24, 1-(3-isopropyl-1,2,4-oxadiazol-5-yl)-4-[(1R,2R)-2-({[4-(methylsulfonyl)benzyl]oxy}methyl)cyclopropyl]piperidine] | 0.92
CC(C)c1noc(N2CCC([C@H]3C[C@H]3COCc3ccc(CC(=O)N4CC(F)C4)cc3F)CC2)n1 [Example 139, 2-(3-fluoro-4-((((1R,2R)-2-(1-(3-isopropyl-1,2,4-oxadiazol-5-yl)piperidin-4-yl)cyclopropyl)methoxy)methyl)phenyl)-1-(3-fluoroazetidin-1-yl)ethanone] | 0.89
CS(=O)(=O)c1ccc(COC[C@@H]2C[C@@H]2C2CCN(c3ncc(F)cn3)CC2)nc1 [Example 5, 5-fluoro-2-{4-[(1R,2R)-2-({[5-(methylsulfonyl)pyridin-2-yl]methoxy}methyl)cyclopropyl]piperidin-1-yl}pyrimidine] | 21
CC(C)Cc1cnc(N2CCC([C@H]3C[C@H]3COCc3ccc(S(C)(=O)=O)cc3)CC2)nc1 [Example 19, 5-isobutyl-2-{4-[(1R,2R)-2-({[4-(methylsulfonyl)benzyl]oxy}methyl)cyclopropyl]piperidin-1-yl}pyrimidine] | 0.13
O=S(=O)(CCO)c1ccc(COC[C@@H]2C[C@@H]2C2CCN(c3ncc(-c4ccoc4)cn3)CC2)c(F)c1 [Example 85, 2-[(3-fluoro-4-{[((1R,2R)-2-{1-[5-(3-furyl)pyrimidin-2-yl]piperidin-4-yl}cyclopropyl)methoxy]methyl}phenyl)sulfonyl]ethanol] | 3.8
